PubChem BioAssay (NCI)
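Exposure lasted 48 hours, with cells grown in 96-well plates and compounds tested at five concentrations. TGI is the concentration that stops growth completely.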

Assays:
Assay in all cases: DTP human tumour cell line panel, 48 h
EKVX NSCLC = system: EKVX NSCLC
PC-3 prostate = system: PC-3 prostate
IGROV1 ovarian = system: IGROV1 ovarian
NCI-H522 lung = system: NCI-H522 lung
A498 renal = system: A498 renal
NCI/ADR-RES ovarian = system: NCI/ADR-RES ovarian
BT-549 breast = system: BT-549 breast
SK-MEL-5 melanoma = system: SK-MEL-5 melanoma
HL-60(TB) leukemia = system: HL-60(TB) leukemia
A549 NSCLC = system: A549 NSCLC
SK-OV-3 ovarian = system: SK-OV-3 ovarian
ACHN renal = system: ACHN renal
TK-10 renal = system: TK-10 renal
RXF 393 renal = system: RXF 393 renal
MOLT-4 leukemia = system: MOLT-4 leukemia
UO-31 renal = system: UO-31 renal
SN12C renal = system: SN12C renal
SW-620 colon = system: SW-620 colon
CAKI-1 renal = system: CAKI-1 renal
SF-539 CNS = system: SF-539 CNS
UACC-257 melanoma = system: UACC-257 melanoma
NCI-H23 lung = system: NCI-H23 lung
MCF7 breast = system: MCF7 breast
U251 CNS = system: U251 CNS
T-47D breast = system: T-47D breast
OVCAR-5 ovarian = system: OVCAR-5 ovarian
HS 578T breast = system: HS 578T breast
SNB-75 CNS = system: SNB-75 CNS
OVCAR-4 ovarian = system: OVCAR-4 ovarian
SK-MEL-2 melanoma = system: SK-MEL-2 melanoma
SF-268 CNS = system: SF-268 CNS
UACC-62 melanoma = system: UACC-62 melanoma
NCI-H226 lung = system: NCI-H226 lung
LOX IMVI melanoma = system: LOX IMVI melanoma
HCT-116 colon = system: HCT-116 colon
HCT-15 colon = system: HCT-15 colon
MDA-MB-435 = system: MDA-MB-435
SNB-19 CNS = system: SNB-19 CNS
KM12 colon = system: KM12 colon
HOP-62 NSCLC = system: HOP-62 NSCLC
SF-295 CNS = system: SF-295 CNS
MALME-3M melanoma = system: MALME-3M melanoma
HCC-2998 colon = system: HCC-2998 colon
M14 melanoma = system: M14 melanoma
MDA-N = system: MDA-N
786-0 renal = system: 786-0 renal
SR leukemia = system: SR leukemia
HOP-92 NSCLC = system: HOP-92 NSCLC
OVCAR-3 ovarian = system: OVCAR-3 ovarian
NCI-H460 lung = system: NCI-H460 lung
CCRF-CEM leukemia = system: CCRF-CEM leukemia
DU-145 prostate = system: DU-145 prostate
COLO 205 colon = system: COLO 205 colon
K-562 leukemia = system: K-562 leukemia
SK-MEL-28 melanoma = system: SK-MEL-28 melanoma
OVCAR-8 ovarian = system: OVCAR-8 ovarian
HT29 colon = system: HT29 colon
RPMI-8226 leukemia = system: RPMI-8226 leukemia

Work on `CC(=O)CC1(O)C(=O)c2c(Br)sc(Br)c2C1=O` yielded a TGI (EKVX NSCLC) of 55.8 µM, a TGI (PC-3 prostate) of 45.4 µM and a TGI (IGROV1 ovarian) of 35.9 µM. The TGI (NCI-H522 lung) was 36.4 µM, the TGI (A498 renal) was > 100 µM and the TGI (NCI/ADR-RES ovarian) was > 100 µM. The TGI (BT-549 breast) was 35.8 µM, the TGI (SK-MEL-5 melanoma) was 34.2 µM and the TGI (HL-60(TB) leukemia) was 50.5 µM. For the same compound, the TGI (A549 NSCLC) was > 100 µM, the TGI (SK-OV-3 ovarian) was > 100 µM and the TGI (ACHN renal) was > 100 µM. For the same compound, the TGI (TK-10 renal) was 56.8 µM, the TGI (RXF 393 renal) was 51.7 µM and the TGI (MOLT-4 leukemia) was > 100 µM. It also gave a TGI (UO-31 renal) of 50.7 µM, a TGI (SN12C renal) of 35.4 µM and a TGI (SW-620 colon) of 55.6 µM. It also gave a TGI (CAKI-1 renal) of 32.1 µM, a TGI (SF-539 CNS) of 49.3 µM and a TGI (UACC-257 melanoma) of 41.4 µM. The TGI (NCI-H23 lung) was 39.2 µM, the TGI (MCF7 breast) was > 100 µM and the TGI (U251 CNS) was 53.5 µM. For the same compound, the TGI (T-47D breast) was 83.9 µM, the TGI (OVCAR-5 ovarian) was 33.9 µM and the TGI (HS 578T breast) was 95 µM. The TGI (SNB-75 CNS) was > 100 µM, the TGI (OVCAR-4 ovarian) was 36.4 µM and the TGI (SK-MEL-2 melanoma) was 46.7 µM. For the same compound, the TGI (SF-268 CNS) was 82.4 µM, the TGI (UACC-62 melanoma) was 46 µM and the TGI (NCI-H226 lung) was > 100 µM. The TGI (LOX IMVI melanoma) was 35 µM, the TGI (HCT-116 colon) was 35.8 µM and the TGI (HCT-15 colon) was 45.7 µM. For the same compound, the TGI (MDA-MB-435) was 43.6 µM, the TGI (SNB-19 CNS) was > 100 µM and the TGI (KM12 colon) was > 100 µM. The TGI (HOP-62 NSCLC) was 79.4 µM, the TGI (SF-295 CNS) was > 100 µM and the TGI (MALME-3M melanoma) was 33.2 µM. For the same compound, the TGI (HCC-2998 colon) was 32.7 µM, the TGI (M14 melanoma) was 33.1 µM and the TGI (MDA-N) was 45.9 µM. The TGI (786-0 renal) was 57.6 µM, the TGI (SR leukemia) was 49.9 µM and the TGI (HOP-92 NSCLC) was 34.7 µM. For the same compound, the TGI (OVCAR-3 ovarian) was 31.7 µM, the TGI (NCI-H460 lung) was > 100 µM and the TGI (CCRF-CEM leukemia) was 43 µM. For the same compound, the TGI (DU-145 prostate) was > 100 µM, the TGI (COLO 205 colon) was 36.9 µM and the TGI (K-562 leukemia) was 91 µM. The TGI (SK-MEL-28 melanoma) was 46 µM, the TGI (OVCAR-8 ovarian) was 48 µM and the TGI (HT29 colon) was 53.8 µM. The TGI (RPMI-8226 leukemia) was > 100 µM.
